Data set [1] concerns the target T1, human CysLT2 receptor (Homo sapiens, UniProt Q9NS75).
T1 construct: expressed in transfected cells; host or cells: CHO K1 (ATCC) constitutively expressing aequorin
T1 sequence (Q9NS75 1-346): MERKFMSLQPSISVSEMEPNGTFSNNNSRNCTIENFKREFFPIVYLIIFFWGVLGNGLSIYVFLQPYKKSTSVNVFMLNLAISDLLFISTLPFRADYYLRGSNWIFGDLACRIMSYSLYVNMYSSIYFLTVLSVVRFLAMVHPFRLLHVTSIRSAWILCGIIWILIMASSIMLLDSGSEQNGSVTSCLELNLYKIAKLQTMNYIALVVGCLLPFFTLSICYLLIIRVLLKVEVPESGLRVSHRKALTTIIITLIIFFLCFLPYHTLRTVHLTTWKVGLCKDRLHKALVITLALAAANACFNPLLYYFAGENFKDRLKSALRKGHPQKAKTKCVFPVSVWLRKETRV
The data set is described as follows: Cellular in vitro test to determine the CysLT2 activity (aequorin luminescence, LTD4 stimulation). The data set is classed as cell-based. Particulars: CHO K1 cells with aequorin and human CysLT2 receptor; agonist LTD4 3×10^−8 M. The text has this:
B. Assessment of the Physiological Activity Abbreviations: DMEM Dulbecco's modified Eagle medium FCS Fetal calf serum HEPES 4-(2-hydroxyethyl)-1-piperazineethanesulphonic acid 1. Cellular In Vitro Test to Determine the CysLT2 Activity
A recombinant cell line is used to identify antagonists of the human cysteinyl-leukotriene 2 receptor (CysLT2R) and to quantify the activity of the substances described herein. The cell is originally derived from a hamster ovary epithelial cell (Chinese Hamster Ovary, CHO K1, ATCC: American Type Culture Collection, Manassas, Va. 20108, USA). The test cell line constitutively expresses the calcium-sensitive photoprotein aequorin which, after reconstitution with the cofactor coelenterazine, emits light when the cytoplasmic calcium concentration is increased (Rizzuto R, Simpson A W, Brini M, Pozzan T.; Nature 358 (1992) 325-327). The cell is additionally stably transfected with the human CysLT2 receptor (Heise et.al., JBC 275 (2000) 30531-30536). The resulting CysLT2R test cell responds to stimulation of the recombinant CysLT2 receptor (agonists: leukotriene D4 (LTD4) and leukotriene C4 (LTC4)) with an intracellular release of calcium ions, which can be quantified through the resulting aequorin luminescence with a suitable luminometer (Milligan G, Marshall F, Rees S, Trends in Pharmacological Sciences 17 (1996) 235-237). Preincubation with antagonists of the CysLT2 receptor reduces the calcium release induced by the agonists LTD4 and LTC4 and thus the measured amount of light.
(§1) Test procedure: The cells are plated out two days before the test in culture medium (DMEM/F12 with Glutamax, Gibco Cat.# 61965-026; 10% FCS, Gibco Cat.# 10270-106; 1.4 mM sodium pyruvate, Gibco Cat.# 11360-039; 1.8 mM sodium bicarbonate, Gibco Cat.# 25080-060; 10 mM HEPES, Gibco Cat.# 15290-026; now belongs to Invitrogen GmbH, 76131 Karlsruhe) in 384- (or 1536-)well microtitre plates and kept in a cell incubator (96% humidity, 5% V/V CO2, 37° C.). On the day of the test, the culture medium is replaced by Tyrode solution (in mM: 140 NaCl, 5 KCl, 1 MgCl2, 2 CaCl2; 20 glucose, 20 HEPES) which additionally contains the cofactor coelenterazine (50 μM), and the microtitre plate is then incubated for a further 3-4 hours. 15 minutes after the test substances have been transferred into the wells of the microtitre plate, the resulting light signal is measured after addition of the LTD4 (3×10^−8 M) in the luminometer.

The target of data set [2] is T2, human CysLT1 receptor (Homo sapiens, UniProt Q9Y271).
T2 construct: expressed in transfected cells; host or cells: CHO K1 (ATCC) constitutively expressing aequorin
T2 sequence (Q9Y271 1-337): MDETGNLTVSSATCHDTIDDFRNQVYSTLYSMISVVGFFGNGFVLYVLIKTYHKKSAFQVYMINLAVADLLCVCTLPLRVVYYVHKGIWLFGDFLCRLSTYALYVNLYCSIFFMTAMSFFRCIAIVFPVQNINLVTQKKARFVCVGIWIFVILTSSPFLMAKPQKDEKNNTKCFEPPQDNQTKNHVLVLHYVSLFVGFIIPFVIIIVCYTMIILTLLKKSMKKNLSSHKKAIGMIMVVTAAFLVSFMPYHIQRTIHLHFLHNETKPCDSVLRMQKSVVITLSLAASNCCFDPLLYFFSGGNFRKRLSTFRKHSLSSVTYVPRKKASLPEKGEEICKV
The data set is described as follows: Cellular in vitro test to determine the CysLT1 activity (aequorin luminescence, LTD4 stimulation). The data set is classed as cell-based. Particulars: CHO K1 cells with aequorin and human CysLT1 receptor; agonist LTD4 3×10^−9 M.
Source text: 2. Cellular In Vitro Test to Determine the CysLT1 Activity
A recombinant cell line is used to identify antagonists of the human cysteinyl-leukotriene 1 receptor (CysLT1R) and to quantify the activity of the substances described herein. The cell is originally derived from a hamster ovary epithelial cell (Chinese Hamster Ovary, CHO K1, ATCC: American Type Culture Collection, Manassas, Va. 20108, USA). The test cell line constitutively expresses the calcium-sensitive photoprotein aequorin which, after reconstitution with the cofactor coelenterazine, emits light when the cytoplasmic calcium concentration is increased (Rizzuto R, Simpson A W, Brini M, Pozzan T.; Nature 358 (1992) 325-327). The cell is additionally stably transfected with the human CysLT1 receptor (Lynch et al., Nature 399 (1999) 789-793). The resulting CysLT1R test cell responds to stimulation of the recombinant CysLT1 receptor (agonist: leukotriene D4 (LTD4)) with an intracellular release of calcium ions, which can be quantified through the resulting aequorin luminescence with a suitable luminometer (Milligan G, Marshall F, Rees S. Trends in Pharmacological Sciences 17 (1996) 235-237). Preincubation with antagonists of the CysLT1 receptor reduces the calcium release induced by the agonist LTD4 and thus the measured amount of light.
as §1, with “CaCl2,” for “CaCl2;”, “(3×10^−9M)” for “(3×10^−8 M)”

The subject of data set [3] is isolated guinea pig hearts. In words: Langendorff guinea pig heart: perfusion pressure and left ventricular pressure after LTC4. As for the experimental part: 3. […] to Detect the Cardiovascular Effect: Langendorff Guinea Pig Heart
The heart is removed after opening the chest cavity of anaesthetized guinea pigs and is introduced into a conventional Langendorff apparatus. The coronary arteries are subjected to a constant volume (10 ml/min) perfusion, and the perfusion pressure arising thereby is recorded via an appropriate pressure transducer. A decrease in the perfusion pressure in this arrangement corresponds to a relaxation of the coronary arteries. At the same time, the pressure developed by the heart during each contraction (the left ventricular pressure) is measured by a balloon introduced into the left ventricle, and a further pressure transducer. The rate at which the isolated heart beats is found by calculation from the number of contractions per unit time.
To detect the effect of CysLT2 receptor antagonists, the perfusion with the agonist LTC4 (10^−8 M) is started 15 minutes before addition of increasing concentrations of the test substance (10^−8 to 10^−6 M).

Where [4] appears, read: LTC4 (10^−8M) + test sub. (10^−6M).
Setting [5] is: LTC4 (10^−8M) + test sub. (10^−7M).
Setting [6] is: LTC4 (10^−8M) + test sub. (10^−8M).

pIC50: −log10 of the molar value.

Consider `O=C(O)c1ccc(OCCCc2ccc(OCCCCOc3ccccc3)cc2)c(C(=O)NC2CCCC(C(=O)O)C2)c1` (racemic) [Example 12, 3-{[(3-Carboxycyclohexyl)amino]carbonyl}-4-{3-[4-(4-phenoxybutoxy)phenyl]-propoxy}benzoic acid (racemate A)], for which the melting point was above 210 °C.

Regarding `O=C(O)c1ccc(OCCCc2ccc(OCCCC3CCCCC3)cc2)c(C(=O)NC2CCCC(C(=O)O)C2)c1` (stereo not shown) [Example 23, 3-{[(3-Carboxycyclohexyl)amino]carbonyl}-4-{3-[4-(3-cyclohexylpropoxy)phenyl]-propoxy}benzoic acid], the melting point amounted to 160 °C. The pIC50 in data set [1] was 8.30. The same molecule gave a pIC50 in data set [2] of 5.70. Further, in data set [3] (setting [4]), the “Left ventricular pressure relative to control without LTC4” value is on record as 97% and the “Perfusion pressure relative to control without LTC4” value was 111%. In addition, in data set [3] (setting [5]), the “Left ventricular pressure relative to control without LTC4” value came to 84% and the “Perfusion pressure relative to control without LTC4” value is recorded as 127%. In data set [3] (setting [6]), the “Left ventricular pressure relative to control without LTC4” value is reported as 72% and the “Perfusion pressure relative to control without LTC4” value is reported as 133%.

With `O=C(O)c1ccc(OCCCc2ccc(OCCCC3CCCCC3)cc2)c(C(=O)N2CCC(C(=O)O)CC2)c1` [Example 31, 1-(5-Carboxy-2-{3-[4-(3-cyclohexylpropoxy)phenyl]propoxy}benzoyl)piperidine-4-carboxylic acid], the melting point was 183.4 to 184.5 °C. Moreover, in data set [1], the pIC50 is 7.85. Besides, in data set [2], the pIC50 was 5.60. In data set [3] (setting [4]), the “Left ventricular pressure relative to control without LTC4” value turned out to be 87% and the “Perfusion pressure relative to control without LTC4” value was found to be 112%. In data set [3] (setting [5]), the “Left ventricular pressure relative to control without LTC4” value is 81% and the “Perfusion pressure relative to control without LTC4” value stood at 123%. Further, in data set [3] (setting [6]), the “Left ventricular pressure relative to control without LTC4” value is 67% and the “Perfusion pressure relative to control without LTC4” value was 128%.

On to `O=C(O)c1ccc(OCCCc2ccc(OCCCCOc3ccccc3)cc2)c(C(=O)N2CCC(C(=O)O)CC2)c1` [Example 15, 1-(5-Carboxy-2-{3-[4-(4-phenoxybutoxy)phenyl]propoxy}benzoyl)-4-piperidine-carboxylic acid], for which the melting point was 142 to 143 °C.

With `O=C(O)c1ccc(OCCCc2ccc(OCc3ccc(-c4ccccc4)cc3)cc2)c(C(=O)N2CCC(C(=O)O)CC2)c1` [Example 13, 1-(2-{3-[4-(1,1′-Biphenyl-4-ylmethoxy)phenyl]propoxy}-5-carboxybenzoyl)-4-piperidinecarboxylic acid], the melting point was 193 to 194 °C.

`O=C(O)CC1CCN(C(=O)c2cc(C(=O)O)ccc2OCCCc2ccc(OCCCCOc3ccccc3)cc2)CC1` [Example 18, 3-{[4-(Carboxymethyl)-1-piperidinyl]carbonyl}-4-{3-[4-(4-phenoxybutoxy)phenyl]-propoxy}benzoic acid] displayed a melting point of 192 °C.

`O=C(O)c1ccc(OCCCc2ccc(OCCCCOc3ccccc3)cc2)c(C(=O)NC2CCC(C(=O)O)CC2)c1` (stereo not shown) [Example 16, 3-{[(4-Carboxycyclohexyl)amino]carbonyl}-4-{3-[4-(4-phenoxybutoxy)phenyl]-propoxy}benzoic acid] had a melting point of 163 to 165 °C.

`CC(C)Oc1ccc(COc2ccc(CCCOc3ccc(C(=O)O)cc3C(=O)NC3CCCC(C(=O)O)C3)cc2)cc1` (stereo not shown) [Example 33, 3-{[(3-Carboxycyclohexyl)amino]carbonyl}-4-(3-{4-[(4-isopropoxybenzyl)oxy]-phenyl}propoxy)benzoic acid]: the pIC50 in data set [1] is 7.82; in data set [2] it was below 5.00. The “Left ventricular pressure relative to control without LTC4” value in data set [3] (setting [4]) is on record as 84%; in data set [3] (setting [5]) it was 57%; in data set [3] (setting [6]), 44%. The “Perfusion pressure relative to control without LTC4” value in data set [3] (setting [4]) came to 108%; in data set [3] (setting [5]), 121%; in data set [3] (setting [6]) it was 122%.

Turning to `O=C(O)c1ccc(OCCCc2ccc(OCCCCOc3ccccc3)cc2)c(C(=O)NC2CCCC(C(=O)O)C2)c1` (racemic) [Example 11, 3-{[(3-Carboxycyclohexyl)amino]carbonyl}-4-{3-[4-(4-phenoxybutoxy)phenyl]-propoxy}benzoic acid (racemate B)], the melting point lay in the range of 182 to 183 °C. Besides, in data set [1], the pIC50 was 7.46. This molecule also gave a pIC50 in data set [2] below 5.00. In data set [3] (setting [4]), the “Left ventricular pressure relative to control without LTC4” value was 79% and the “Perfusion pressure relative to control without LTC4” value is given as 108%. Further, in data set [3] (setting [5]), the “Left ventricular pressure relative to control without LTC4” value is recorded as 60% and the “Perfusion pressure relative to control without LTC4” value stood at 112%. For the same molecule, in data set [3] (setting [6]), the “Left ventricular pressure relative to control without LTC4” value is listed as 44% and the “Perfusion pressure relative to control without LTC4” value was 125%.

As usually defined, the melting point is the temperature, or range, at which the solid turns liquid. Broadly, the pIC50 is the negative decadic logarithm of the IC50, by convention in mol/L. A low value points to a large IC50.

For the origin of these results see patent publication US7498460B2, “Isophthalic acid derivatives” (Bayer Healthcare AG, priority 2002, dated 2009).
